In the supplement of paper PMC6045584:

compound: O=c1[nH]cc(F)c(=O)[nH]1 [FLUOROURACIL]; assay: area under dose-response curve of surviving fraction (unscaled, Aref=0) (surviving fraction x log10(nM)); higher = more resistant; conditions: exposure time: 5 days; dose range 0.5-1000 nM
Procedure, shortened: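 Surviving fractions were fitted by 3-parameter logistic regression in the drc R package to give dose-response survival curves. They came from tumour cell lines treated for five days with eight inhibitor concentrations from 0.5 to 1000 nM and read by CellTiter-Glo luminescence against DMSO-only wells. The area under the curve is the unscaled activity area. It was calculated over log10 dose with Aref = 0.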

Test System | area under dose-response curve
CCK81 LARGE INTESTINE | 2.58
G292 BONE | 3.29
HCC38 BREAST | 2.87
HMT3552 BREAST | 3.23
HS578T BREAST | 2.85
